Experiment: wn = mass fraction of the nth substance listed
Conditions: 313.15 K, Liquid; for viscosity: Falling or rolling sphere viscometry; for mass density: Vibrating tube method

CN(CCO)CCO [N-methyldiethanolamine] + O
Conditions | mass density, w1 = 0.1 [kg/m3] | mass density, w1 = 0.2002 [kg/m3] | mass density, w1 = 0.3 [kg/m3] | mass density, w1 = 0.4 [kg/m3] | viscosity, w1 = 0.1 [mPa·s] | viscosity, w1 = 0.2002 [mPa·s] | viscosity, w1 = 0.3 [mPa·s] | viscosity, w1 = 0.4 [mPa·s]
20000 kPa | 1008.2 | 1016.1 | 1024.6 | 1032.8 | 0.92 | 1.358 | 2.144 | 3.365
30000 kPa | 1012.3 | 1019.9 | 1028.4 | 1036.3 | 0.923 | 1.367 | 2.168 | 3.428
40000 kPa | 1016.2 | 1023.7 | 1032 | 1040 | 0.927 | 1.377 | 2.192 | 3.491
50000 kPa | 1019.9 | 1027.3 | 1035.5 | 1043.2 | – | – | – | –
60000 kPa | 1023.8 | 1031 | 1039 | 1046.6 | 0.936 | 1.398 | 2.244 | 3.618
70000 kPa | 1027.4 | 1034.4 | 1042.3 | 1050 | – | – | – | –
80000 kPa | 1031 | 1037.9 | 1045.5 | 1053.1 | 0.945 | 1.418 | 2.296 | 3.74
90000 kPa | 1034.5 | 1041.2 | 1048.7 | 1056.2 | – | – | – | –
100000 kPa | 1038.2 | 1044.7 | 1052 | 1059.5 | 0.955 | 1.445 | 2.356 | 3.866
110000 kPa | 1041.5 | 1047.9 | 1055.2 | 1062.5 | – | – | – | –
120000 kPa | 1044.9 | 1051.1 | 1058.3 | 1065.5 | 0.964 | 1.466 | 2.412 | 3.996
130000 kPa | 1048.1 | 1054.3 | 1061.3 | 1068.4 | – | – | – | –
140000 kPa | 1051.4 | 1057.4 | 1064.5 | 1071.4 | – | – | – | –

Source: the NIST ThermoML archive (doi:10.1016/j.jct.2016.03.021)
